What all share (assay type): biochemical
For assay [1], the target named is T1, recombinant human VAP-1 (Homo sapiens, UniProt Q16853).
T1 construct: purchased R&D systems
T1 sequence (Q16853 1-763): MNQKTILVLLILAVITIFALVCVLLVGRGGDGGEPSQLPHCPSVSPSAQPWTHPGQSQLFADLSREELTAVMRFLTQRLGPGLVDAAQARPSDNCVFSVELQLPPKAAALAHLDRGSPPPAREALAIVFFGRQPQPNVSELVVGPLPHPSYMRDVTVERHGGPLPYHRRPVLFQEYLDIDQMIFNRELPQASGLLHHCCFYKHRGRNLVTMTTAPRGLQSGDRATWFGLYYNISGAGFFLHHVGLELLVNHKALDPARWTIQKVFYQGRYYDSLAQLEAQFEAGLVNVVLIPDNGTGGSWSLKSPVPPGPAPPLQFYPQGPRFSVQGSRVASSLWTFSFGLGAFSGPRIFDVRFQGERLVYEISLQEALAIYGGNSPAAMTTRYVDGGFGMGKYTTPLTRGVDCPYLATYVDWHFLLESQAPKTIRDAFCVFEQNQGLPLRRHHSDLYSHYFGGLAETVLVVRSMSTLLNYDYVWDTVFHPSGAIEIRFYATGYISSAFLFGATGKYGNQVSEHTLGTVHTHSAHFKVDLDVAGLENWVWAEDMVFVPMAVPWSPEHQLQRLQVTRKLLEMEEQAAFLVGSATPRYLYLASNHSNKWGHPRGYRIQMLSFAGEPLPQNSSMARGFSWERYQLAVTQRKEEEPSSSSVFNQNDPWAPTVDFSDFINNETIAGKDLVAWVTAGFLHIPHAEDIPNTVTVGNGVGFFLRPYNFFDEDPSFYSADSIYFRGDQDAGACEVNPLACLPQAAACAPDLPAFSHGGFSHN
The assay is described as follows: Activity on recombinant human VAP-1, Amplex Red HRP-coupled hydrogen peroxide assay, benzylamine substrate. To be noted: recombinant human VAP-1, benzylamine substrate; read-out: Inhibitory Activity (IC50, nM) human VAP-1. In short, it runs like this: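 Enzyme in 50 mM sodium phosphate (pH 7.4) is exposed to test compound for 30 min at 37 °C. Benzylamine (1 mM) with HRP and Amplex Red then starts the reaction, and the fluorescence rate, relative to a DMSO-only control, gives IC50.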

In assay [2] the target is T2, recombinant human MAO-A (monoamine oxidase-A) (Homo sapiens, UniProt P21397).
T2 construct: purchased Sigma-Aldrich
T2 sequence (P21397 1-527): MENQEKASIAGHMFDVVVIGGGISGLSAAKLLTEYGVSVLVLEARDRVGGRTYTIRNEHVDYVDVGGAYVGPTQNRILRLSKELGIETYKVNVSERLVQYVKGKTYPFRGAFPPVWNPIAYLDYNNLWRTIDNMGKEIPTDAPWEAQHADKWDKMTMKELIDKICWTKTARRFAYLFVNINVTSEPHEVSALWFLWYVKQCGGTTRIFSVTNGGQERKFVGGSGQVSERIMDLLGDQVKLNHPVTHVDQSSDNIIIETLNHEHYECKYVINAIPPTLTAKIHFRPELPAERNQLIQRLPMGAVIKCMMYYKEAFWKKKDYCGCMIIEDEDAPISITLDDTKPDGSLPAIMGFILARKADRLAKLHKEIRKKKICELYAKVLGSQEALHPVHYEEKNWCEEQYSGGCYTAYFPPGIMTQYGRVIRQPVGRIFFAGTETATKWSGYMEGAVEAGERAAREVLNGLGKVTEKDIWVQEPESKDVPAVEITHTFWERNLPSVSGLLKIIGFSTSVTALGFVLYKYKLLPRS
The assay is described as follows: Activity on recombinant human MAO-A, Amplex Red method, 0.5 mM tyramine substrate. The note with it: 0.5 mM tyramine substrate, read-out: Inhibitory Activity (IC50, nM) MAO-A. Summed up: (§1)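 Enzyme in pH 7.4 phosphate buffer; 30 min, 37° C with compound (DMSO <1%); start with 200 uM Amplex Red + 1 U/mL HRP + tyramine 0.5 mM (MAO-A) or benzylamine 1 mM (MAO-B); kinetic read ex 544/em 590, 1-2 h; % rate decrease vs DMSO control → IC50, 4-parameter fit.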

Assay [3] concerns the target T3, recombinant human DAO (diamine oxidase) (Homo sapiens, UniProt P19801).
T3 construct: purchased R&D systems
T3 sequence (P19801 20-751): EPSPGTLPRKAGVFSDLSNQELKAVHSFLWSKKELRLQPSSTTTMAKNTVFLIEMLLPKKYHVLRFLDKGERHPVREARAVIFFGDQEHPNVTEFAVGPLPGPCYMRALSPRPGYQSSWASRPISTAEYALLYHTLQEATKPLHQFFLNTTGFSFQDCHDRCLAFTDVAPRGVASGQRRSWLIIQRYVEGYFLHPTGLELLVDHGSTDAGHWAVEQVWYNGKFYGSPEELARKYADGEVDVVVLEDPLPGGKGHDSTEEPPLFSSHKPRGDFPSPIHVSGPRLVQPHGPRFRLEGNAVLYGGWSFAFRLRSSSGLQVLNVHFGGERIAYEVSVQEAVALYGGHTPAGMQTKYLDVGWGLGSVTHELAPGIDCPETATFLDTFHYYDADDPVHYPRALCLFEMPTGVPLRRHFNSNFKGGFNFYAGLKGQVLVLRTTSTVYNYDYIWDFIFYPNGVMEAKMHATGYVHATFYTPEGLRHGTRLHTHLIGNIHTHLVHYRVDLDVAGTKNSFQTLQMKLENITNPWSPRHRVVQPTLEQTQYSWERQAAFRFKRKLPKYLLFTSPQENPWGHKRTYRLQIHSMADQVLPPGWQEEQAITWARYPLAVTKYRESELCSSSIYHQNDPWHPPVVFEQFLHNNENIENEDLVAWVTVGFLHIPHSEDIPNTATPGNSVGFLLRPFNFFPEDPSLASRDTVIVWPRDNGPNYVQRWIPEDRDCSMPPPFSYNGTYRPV
Nature of the assay: Activity on recombinant human DAO, Amplex Red method, 1 mM putrescine substrate. To be noted: recombinant human DAO, 1 mM putrescine substrate, read-out: Inhibitory Activity (IC50, nM) DAO. Summed up:
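Inhibition of recombinant human DAO (diamine oxidase, R&D systems) was assessed with the Amplex Red Hydrogen Peroxide Assay Kit. Hydrogen peroxide produced from 1 mM putrescine was detected through an HRP-coupled reaction that converts Amplex Red into fluorescent resorufin, read at 544 nm excitation and 590 nm emission. IC50 values came from four-parameter logistic fits in GraphPad Prism.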

The target of assay [4] is T4, recombinant human MAO-B (monoamine oxidase-B) (Homo sapiens, UniProt P27338).
T4 construct: purchased Sigma-Aldrich
T4 sequence (P27338 1-520): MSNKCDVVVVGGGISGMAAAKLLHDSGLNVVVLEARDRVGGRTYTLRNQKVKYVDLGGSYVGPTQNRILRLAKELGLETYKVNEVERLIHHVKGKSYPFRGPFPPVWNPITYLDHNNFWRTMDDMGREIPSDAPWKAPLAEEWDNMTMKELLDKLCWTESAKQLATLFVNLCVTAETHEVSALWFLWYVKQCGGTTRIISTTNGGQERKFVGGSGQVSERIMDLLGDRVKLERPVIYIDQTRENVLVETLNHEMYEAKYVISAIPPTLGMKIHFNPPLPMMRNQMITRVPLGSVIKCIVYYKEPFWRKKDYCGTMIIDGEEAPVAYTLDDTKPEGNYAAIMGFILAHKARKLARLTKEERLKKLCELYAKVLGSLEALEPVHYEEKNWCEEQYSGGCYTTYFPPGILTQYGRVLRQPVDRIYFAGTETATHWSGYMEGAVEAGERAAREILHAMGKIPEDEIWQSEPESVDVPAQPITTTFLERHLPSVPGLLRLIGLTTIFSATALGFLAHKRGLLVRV
Nature of the assay: Activity on recombinant human MAO-B, Amplex Red method, 1 mM benzylamine substrate. To be noted: 1 mM benzylamine substrate, read-out: Inhibitory Activity (IC50, nM) MAO-B. In short, it runs like this: as §1

Structures can show the parent of a compound that is named as a salt. Where two headings read alike, the source gives them in different places.

The term IC50 denotes the point on the concentration scale where inhibition reaches its midpoint. For the compound `CN1C(=O)CCc2cc(-c3cccc(-n4cnn(C/C(=C/F)CN)c4=O)n3)ccc21` [Example 198, 6-[6-[1-[(E)-2-(aminomethyl)-3-fluoro-allyl]-5-oxo-1,2,4-triazol-4-yl]-2-pyridyl]-1-methyl-3,4-dihydroquinolin-2-one hydrochloride], the IC50 was 2.9 nM in assay [1], over 100000 nM in assay [2], 130 nM in assay [3] and over 10000 nM in assay [4].

`NC/C(=C\F)Cn1ncn(-c2cccc(-c3ccc4c(c3)NC(=O)CO4)n2)c1=O` [Example 199, hydrochloride]: the half-maximal inhibitory concentration (IC50) in assay [1] was 4.6 nM; in assay [2] it was over 100000 nM; in assay [3] (bound qualified by footnote * / **) it was under 100 nM; in assay [4], 1900 nM.

With `NC/C(=C\F)Cn1ncn(-c2cccc(-c3ccc4c(c3)NC(=O)OC4)n2)c1=O` [Example 200, 7-(6-{1-[(2E)-2-(aminomethyl)-3-fluoroprop-2-en-1-yl]-5-oxo-1,5-dihydro-4H-1,2,4-triazol-4-yl}pyridin-2-yl)-1,4-dihydro-2H-3,1-benzoxazin-2-one hydrochloride], the half-maximal inhibitory concentration (IC50) was 0.2 nM in assay [1], over 100000 nM in assay [2], 1.6 nM in assay [3] and 1100 nM in assay [4].

With `NC/C(=C\F)Cn1ncn(-c2cccc(-c3cccc4[nH]c(=O)ccc34)n2)c1=O` [Example 201, 5-(6-{1-[(2E)-2-(aminomethyl)-3-fluoroprop-2-en-1-yl]-5-oxo-1,5-dihydro-4H-1,2,4-triazol-4-yl}pyridin-2-yl)quinolin-2(1H)-one hydrochloride], the IC50 was 1.3 nM in assay [1], over 100000 nM in assay [2], 17 nM in assay [3] and over 10000 nM in assay [4].

`CN1CCOc2cc(-c3cccc(-n4cnn(C/C(=C/F)CN)c4=O)n3)ccc21` [Example 202, 2-[(2E)-2-(aminomethyl)-3-fluoroprop-2-en-1-yl]-4-[6-(4-methyl-3,4-dihydro-2H-1,4-benzoxazin-7-yl)pyridin-2-yl]-2,4-dihydro-3H-1,2,4-triazol-3-one hydrochloride]: the concentration for half-maximal inhibition (IC50) in assay [1] was 1 nM; in assay [2] it was over 100000 nM; in assay [3], 240 nM; in assay [4], 1300 nM.

For the compound `NC/C(=C\F)Cn1ncn(-c2cccc(-c3cccc4c3oc3ccccc34)n2)c1=O` [Example 203, 2-[(2E)-2-(aminomethyl)-3-fluoroprop-2-en-1-yl]-4-[6-(dibenzo[b,d]furan-4-yl)pyridin-2-yl]-2,4-dihydro-3H-1,2,4-triazol-3-one hydrochloride], the half-inhibitory concentration (IC50) in assay [1] came to 1.8 nM; in assay [2], 12000 nM; in assay [3], 3 nM; in assay [4], 73 nM.

For `CC(C)c1nc(-c2ccc(-c3cc(-n4cnn(C/C(=C/F)CN)c4=O)ccn3)cc2)no1` [Example 205, 2-[(2E)-2-(aminomethyl)-3-fluoroprop-2-en-1-yl]-4-(2-{4-[5-(propan-2-yl)-1,2,4-oxadiazol-3-yl]phenyl}pyridin-4-yl)-2,4-dihydro-3H-1,2,4-triazol-3-one hydrochloride], the IC50 is 1 nM in assay [1], over 100000 nM in assay [2], under 10 nM in assay [3] and 240 nM in assay [4].

For `CC(C)c1nc(-c2cccc(-c3cc(-n4cnn(C/C(=C/F)CN)c4=O)ccn3)c2)no1` [Example 206, 2-[(2E)-2-(aminomethyl)-3-fluoroprop-2-en-1-yl]-4-(2-{3-[5-(propan-2-yl)-1,2,4-oxadiazol-3-yl]phenyl}pyridin-4-yl)-2,4-dihydro-3H-1,2,4-triazol-3-one hydrochloride], the half-maximal inhibitory concentration (IC50) was 0.7 nM in assay [1], over 100000 nM in assay [2], under 10 nM in assay [3] and 110 nM in assay [4].

In the case of `NC/C(=C\F)Cn1ncn(-c2ccnc(-c3ccc(N4CCOCC4)cc3)c2)c1=O` [Example 207, 2-[(2E)-2-(aminomethyl)-3-fluoroprop-2-en-1-yl]-4-{2-[4-(morpholin-4-yl)phenyl]pyridin-4-yl}-2,4-dihydro-3H-1,2,4-triazol-3-one hydrochloride], the IC50 in assay [1] was 0.45 nM; in assay [2], over 100000 nM; in assay [3], under 10 nM; in assay [4], 1400 nM.

Regarding `NC/C(=C\F)Cn1ncn(-c2ccnc(-c3ccc(C(=O)N4CCOCC4)cc3)c2)c1=O` [Example 208, 2-[(2E)-2-(aminomethyl)-3-fluoroprop-2-en-1-yl]-4-{2-[4-(morpholin-4-ylcarbonyl)phenyl]pyridin-4-yl}-2,4-dihydro-3H-1,2,4-triazol-3-one hydrochloride], the IC50 in assay [1] was 0.89 nM; in assay [2], over 100000 nM; in assay [3], under 10 nM; in assay [4], over 10000 nM.

These data come from patent publication US11492335B2, “Aryl or heteroaryl triazolone derivatives or salts thereof, or pharmaceutical compositions comprising the same” (YUHAN CORPORATION, priority 2018, dated 2022).
